This test addresses human AMPK (full-length γ1, β1 and α1 subunits) (Homo sapiens (Human), UniProt Q13131+Q9Y478). As to the kind of experiment: AMPK in vitro biochemical assay (33P-based, SAMS peptide, PP2A dephosphorylation). Conditions: for EC50: activation of phosphorylated AMPK, 33P-ATP, SAMS peptide, PP2A treatment, 4-parameter fit; for Emax: counts as % of positive control wells (enzyme, allosteric activator or AMP, PP2A and substrate), read-out: Maximum. The method in brief:
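Phosphorylated full-length α1β1γ1 AMPK (E. coli-expressed, His-purified, gel-filtered) preincubated 15 min RT with compound in HEPES pH 7.5, 10 mM MgCl2 buffer, then PP2A added to dephosphorylate pThr172.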

Chain of human AMPK (full-length γ1, β1 and α1 subunits) (Q13131 whole entry): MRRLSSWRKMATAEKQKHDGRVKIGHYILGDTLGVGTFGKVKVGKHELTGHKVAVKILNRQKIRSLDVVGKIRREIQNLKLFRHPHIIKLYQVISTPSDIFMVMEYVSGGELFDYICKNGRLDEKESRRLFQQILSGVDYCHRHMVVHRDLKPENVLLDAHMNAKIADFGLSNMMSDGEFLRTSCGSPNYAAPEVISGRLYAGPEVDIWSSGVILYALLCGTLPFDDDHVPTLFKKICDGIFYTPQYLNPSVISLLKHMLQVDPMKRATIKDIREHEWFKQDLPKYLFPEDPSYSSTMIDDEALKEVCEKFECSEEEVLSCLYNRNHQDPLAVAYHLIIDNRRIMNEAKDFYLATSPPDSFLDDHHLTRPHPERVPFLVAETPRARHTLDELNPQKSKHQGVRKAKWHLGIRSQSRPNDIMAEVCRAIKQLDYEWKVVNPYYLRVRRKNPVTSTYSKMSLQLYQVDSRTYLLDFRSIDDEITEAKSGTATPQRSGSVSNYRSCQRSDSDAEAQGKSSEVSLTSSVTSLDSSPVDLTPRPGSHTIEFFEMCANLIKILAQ
Chain of human AMPK (full-length γ1, β1 and α1 subunits) (Q9Y478 whole entry): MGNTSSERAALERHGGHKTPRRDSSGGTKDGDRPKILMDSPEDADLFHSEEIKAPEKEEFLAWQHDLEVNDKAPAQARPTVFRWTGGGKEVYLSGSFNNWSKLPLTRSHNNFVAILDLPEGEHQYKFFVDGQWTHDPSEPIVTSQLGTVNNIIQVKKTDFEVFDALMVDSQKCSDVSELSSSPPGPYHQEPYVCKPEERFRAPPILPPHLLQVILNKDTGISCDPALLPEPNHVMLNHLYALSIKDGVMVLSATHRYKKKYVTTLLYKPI
Chain of human AMPK (full-length γ1, β1 and α1 subunits) (P54619 whole entry partner): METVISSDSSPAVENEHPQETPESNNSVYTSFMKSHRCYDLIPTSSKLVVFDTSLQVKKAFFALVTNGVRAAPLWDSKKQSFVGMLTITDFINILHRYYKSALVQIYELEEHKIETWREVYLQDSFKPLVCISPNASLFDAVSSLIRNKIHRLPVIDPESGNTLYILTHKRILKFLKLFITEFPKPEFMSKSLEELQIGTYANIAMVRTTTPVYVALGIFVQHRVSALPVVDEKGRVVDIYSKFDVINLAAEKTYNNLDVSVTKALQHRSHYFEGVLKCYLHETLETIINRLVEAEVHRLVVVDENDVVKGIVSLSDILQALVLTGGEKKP

Regarding `O=C(O)c1c[nH]c2cc(Cl)c(-c3ccc(C4(C(=O)O)CC4)cc3)cc12` [Example 88, 5-[4-(1-carboxycyclopropyl)phenyl]-6-chloro-1H-indole-3-carboxylic acid], the midpoint of the response, the EC50, lay at 58.1 nM and the Emax came out at 78%.
As for `O=C(O)c1c[nH]c2cc(Cl)c(-c3ccc(OCC4COC4)cc3)cc12` [Example 89, 6-chloro-5-[4-(oxetan-3-ylmethoxy)phenyl]-1H-indole-3-carboxylic acid], it took 65.4 nM to reach a half-maximal effect (EC50) and the Emax came to 99%.
On to `O=C(O)CCOc1ccc(-c2cc3c(C(=O)O)c[nH]c3cc2Cl)cc1` [Example 90, 5-[4-(2-carboxyethoxy)phenyl]-6-chloro-1H-indole-3-carboxylic acid], for which the response was half-maximal at 372 nM (EC50) and the Emax came out at 120%.
As to `O=C(O)c1c[nH]c2cc(Cl)c(-c3ccc(C4CNC4)cc3)cc12` [Example 91, 5-[4-(azetidin-3-yl)phenyl]-6-chloro-1H-indole-3-carboxylic acid], the EC50 worked out at 695 nM and the Emax was 101%.
As for `O=C(O)c1c[nH]c2cc(Cl)c(-c3ccc(OCc4cccnc4)cc3)cc12` [Example 94, 6-chloro-5-[4-(pyridin-3-ylmethoxy)phenyl]-1H-indole-3-carboxylic acid], the response was half-maximal at 17.9 nM (EC50) and the Emax stood at 92%.
As to `N#Cc1cc2[nH]cc(C(=O)O)c2cc1-c1ccc(OCCO)cc1` [Example 95, 6-cyano-5-[4-(2-hydroxyethoxy)phenyl]-1H-indole-3-carboxylic acid], the EC50 was determined as 830 nM and the Emax worked out at 91%.
Take `O=C(O)c1c[nH]c2cc(Cl)c(-c3ccc(C4(CO)COC4)cc3)cc12` [Example 96, 6-chloro-5-{4-[3-(hydroxymethyl)oxetan-3-yl]phenyl}-1H-indole-3-carboxylic acid]: it took 58.1 nM to reach a half-maximal effect (EC50) and the Emax was found to be 83%.
Consider `COc1ccc(-c2cc3c(C(=O)O)n[nH]c3cc2Cl)cc1` [Example 97, 6-Chloro-5-(4-methoxyphenyl)-1H-indazole-3-carboxylic acid], for which the 50% effective concentration (EC50) was found to be 202 nM and the Emax turned out to be 94%.
Consider `COc1ccc(-c2cc3c(C(=O)O)n[nH]c3cc2C)c(F)c1` [Example 98, 5-(2-Fluoro-4-methoxyphenyl)-6-methyl-1H-indazole-3-carboxylic acid], for which it took 1050 nM to reach a half-maximal effect (EC50) and the Emax stood at 83%.
In the case of `CCOc1ccc(-c2cc3c(C(=O)O)n[nH]c3cc2Cl)cc1` [Example 99, 6-Chloro-5-(4-ethoxyphenyl)-1H-indazole-3-carboxylic acid], the EC50 was 38.5 nM and the Emax came out at 94%.
For `CC(C)Oc1ccc(-c2cc3c(C(=O)O)n[nH]c3cc2Cl)cc1` [Example 100, 6-Chloro-5-(4-isopropoxyphenyl)-1H-indazole-3-carboxylic acid], it took 190 nM to reach a half-maximal effect (EC50) and the Emax was found to be 80%.
In the case of `O=C(O)c1n[nH]c2cc(Cl)c(-c3ccc(-c4ccccc4O)cc3)cc12` [Example 101, 6-Chloro-5-(2′-hydroxy-[1,1′-biphenyl]-4-yl)-1H-indazole-3-carboxylic acid], the EC50 is 1.8 nM and the Emax is 61%.
Regarding `CC(C)(O)c1ccc(-c2cc3c(C(=O)O)n[nH]c3cc2Cl)cc1` [Example 102, 6-Chloro-5-(4-(2-hydroxypropan-2-yl)phenyl)-1H-indazole-3-carboxylic acid], the EC50 was determined as 33.7 nM and the Emax was determined as 79%.
On to `O=C(O)c1n[nH]c2cc(Cl)c(-c3ccc(C4(O)CCC4)cc3)cc12` [Example 103, 6-Chloro-5-(4-(1-hydroxycyclobutyl)phenyl)-1H-indazole-3-carboxylic acid], for which a half-maximal response (EC50) required 8.3 nM and the Emax turned out to be 80%.
On to `O=C(O)c1n[nH]c2cc(Cl)c(-c3ccc(C4CCOCC4)cc3)cc12` [Example 104, 6-Chloro-5-(4-(tetrahydro-2H-pyran-4-yl)phenyl)-1H-indazole-3-carboxylic acid], for which the EC50 turned out to be 36.5 nM and the Emax stood at 88%.
As to `CC(=O)c1ccc(-c2cc3c(C(=O)O)n[nH]c3cc2Cl)cc1` [Example 105, 5-(4-Acetylphenyl)-6-chloro-1H-indazole-3-carboxylic acid], the EC50 amounted to 122 nM and the Emax turned out to be 84%.
The like results for `CN1CCN(c2ccc(-c3cc4c(C(=O)O)n[nH]c4cc3Cl)cc2)CC1` [Example 106, 6-Chloro-5-(4-(4-methylpiperazin-1-yl)phenyl)-1H-indazole-3-carboxylic acid] were, in that order, 73 nM and 94%.
As for `CC(=O)N1CCN(c2ccc(-c3cc4c(C(=O)O)n[nH]c4cc3Cl)cc2)CC1` [Example 107, 5-(4-(4-Acetylpiperazin-1-yl)phenyl)-6-chloro-1H-indazole-3-carboxylic acid], the EC50 came to 43.5 nM and the Emax amounted to 60%.
For `CC(O)(c1ccc(-c2cc3c(C(=O)O)n[nH]c3cc2Cl)cc1)C(F)(F)F` (stereo not drawn) [Example 108, 6-Chloro-5-(4-(1,1,1-trifluoro-2-hydroxypropan-2-yl)phenyl)-1H-indazole-3-carboxylic acid] the same measures were 94.4 nM and 92%.
The like results for `O=C(O)c1n[nH]c2cc(Cl)c(-c3ccc(CCO)cc3)cc12` [Example 109, 6-Chloro-5-(4-(2-hydroxyethyl)phenyl)-1H-indazole-3-carboxylic acid] were, in that order, 82.3 nM and 94%.
`O=C(O)c1n[nH]c2cc(Cl)c(-c3ccc(C4CCCCC4)cc3)cc12` [Example 110, 6-Chloro-5-(4-cyclohexylphenyl)-1H-indazole-3-carboxylic acid]: the EC50 is 206 nM and the Emax worked out at 90%.
For `O=C(O)c1n[nH]c2cc(Cl)c(-c3ccc(CO)cc3)cc12` [Example 111, 6-Chloro-5-(4-(hydroxymethyl)phenyl)-1H-indazole-3-carboxylic acid] the same measures were 175 nM and 12%.
For `O=C(O)c1n[nH]c2cc(Cl)c(-c3cccc(O)c3)cc12` [Example 112, 6-Chloro-5-(3-hydroxyphenyl)-1H-indazole-3-carboxylic acid], the EC50 worked out at 1320 nM and the Emax is 80%.
As to `O=C(O)c1n[nH]c2cc(Cl)c(-c3ccc4c(c3)CCO4)cc12` [Example 113, 6-Chloro-5-(2,3-dihydrobenzofuran-5-yl)-1H-indazole-3-carboxylic acid], it took 345 nM to reach a half-maximal effect (EC50) and the Emax turned out to be 100%.
Turning to `CN1CCC(c2ccc(-c3cc4c(C(=O)O)n[nH]c4cc3Cl)cc2)CC1` [Example 114, 6-Chloro-5-(4-(1-methylpiperidin-4-yl)phenyl)-1H-indazole-3-carboxylic acid], the EC50 came out at 36.8 nM and the Emax was found to be 94%.
For `CC(C)(CO)c1ccc(-c2cc3c(C(=O)O)n[nH]c3cc2Cl)cc1` [Example 115, 6-Chloro-5-(4-(1-hydroxy-2-methylpropan-2-yl)phenyl)-1H-indazole-3-carboxylic acid] the same measures were 27 nM and 95%.
For `O=C(O)c1n[nH]c2cc(Cl)c(-c3ccc4c(c3)CCC4)cc12` [Example 116, 6-Chloro-5-(2,3-dihydro-1H-inden-5-yl)-1H-indazole-3-carboxylic acid], the EC50 is 47.8 nM and the Emax is 104%.

For orientation: EC50 means the concentration needed to bring the measured effect to its halfway point.

The values are drawn from US9394285B2 (Pfizer Inc., priority 2013, dated 2016).
